We go through one molecule from US7084301B2 (Ranbaxy Laboratories Limited, priority 2003, dated 2006).

One experiment concerns the target T1, human α1A-adrenoceptors (Homo sapiens, UniProt P35348).
T1 sequence (P35348 1-466): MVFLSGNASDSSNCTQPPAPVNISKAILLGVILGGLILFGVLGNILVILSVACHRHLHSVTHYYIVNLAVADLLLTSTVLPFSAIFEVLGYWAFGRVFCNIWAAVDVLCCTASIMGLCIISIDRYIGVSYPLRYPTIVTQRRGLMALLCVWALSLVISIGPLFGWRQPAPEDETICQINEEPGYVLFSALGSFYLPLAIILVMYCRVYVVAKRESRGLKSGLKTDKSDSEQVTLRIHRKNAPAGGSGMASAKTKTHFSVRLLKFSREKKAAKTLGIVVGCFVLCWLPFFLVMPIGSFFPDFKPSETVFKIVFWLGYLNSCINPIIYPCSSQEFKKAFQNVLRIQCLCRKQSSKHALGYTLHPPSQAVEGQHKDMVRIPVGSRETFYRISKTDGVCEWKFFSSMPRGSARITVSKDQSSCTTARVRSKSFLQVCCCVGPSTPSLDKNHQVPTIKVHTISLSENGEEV
The experiment is described as follows: Radioligand-receptor binding assay, human recombinant α1A-adrenoceptor, [3H]prazosin. On the procedure:
Chinese hamster ovary (CHO) cells which had been stably transfected with human α1A, α1B, or α1D-adrenoceptors (Keffel et al., Biochem. Biophys. Res. Commun., 2000, 272, 906–11) were cultured in an atmosphere of 5% CO2/95% air at 37° C. in F-12 HAM medium supplemented with 10% heat-inactivated fetal calf serum, 1 mM glutamine, 100 U/ml penicillin and 0.1 mg/ml streptomycin. Selection pressure was maintained by regular addition of geneticin to the culture medium.
Competitive radioligand binding to the cloned subtypes of […] was performed using [^3H]prazosin as the radioligand as described by Michel et al, Br. J. Pharmacol., 98, 883–889 (1989) with minor modifications. Experiments were performed in binding buffer consisting of 50 mM Tris, 10 mM MgCl2 and 0.5 mM EDTA at pH 7.5 in a total assay volume of 1000 μl. The protein content typically was 40–60 μg/assay. The mixtures were incubated at 25° C. for 45 minutes. Incubations were terminated by rapid vacuum filtration over GF/C filters followed by two washes of the filters each with 10 ml ice-cold incubation buffer. Non-specific binding was defined as binding in the presence of 10 μM phentolamine.
The IC50 & Kd were estimated by using the non-linear curve fitting program using G Pad Prism software. The value of inhibition constant Ki was calculated from competitive binding studies by using Cheng & Prusoff equation [Cheng & Prusoff, Biochem. Pharmacol., 22, 3099–3108 (1973)], Ki=IC50/(1+L/Kd), where L is the concentration of [^3H] prazosin used in the particular experiment. Kd of [^3H] prazosin was determined from saturation binding studies. The values were tabulated as mean±SEM of pKi values, where pKi is the −log of Ki value.

Experiment [1] deals with T2, rat α1D-adrenoceptor (aorta) (Rattus norvegicus, UniProt P23944).
T2 sequence (P23944 1-561): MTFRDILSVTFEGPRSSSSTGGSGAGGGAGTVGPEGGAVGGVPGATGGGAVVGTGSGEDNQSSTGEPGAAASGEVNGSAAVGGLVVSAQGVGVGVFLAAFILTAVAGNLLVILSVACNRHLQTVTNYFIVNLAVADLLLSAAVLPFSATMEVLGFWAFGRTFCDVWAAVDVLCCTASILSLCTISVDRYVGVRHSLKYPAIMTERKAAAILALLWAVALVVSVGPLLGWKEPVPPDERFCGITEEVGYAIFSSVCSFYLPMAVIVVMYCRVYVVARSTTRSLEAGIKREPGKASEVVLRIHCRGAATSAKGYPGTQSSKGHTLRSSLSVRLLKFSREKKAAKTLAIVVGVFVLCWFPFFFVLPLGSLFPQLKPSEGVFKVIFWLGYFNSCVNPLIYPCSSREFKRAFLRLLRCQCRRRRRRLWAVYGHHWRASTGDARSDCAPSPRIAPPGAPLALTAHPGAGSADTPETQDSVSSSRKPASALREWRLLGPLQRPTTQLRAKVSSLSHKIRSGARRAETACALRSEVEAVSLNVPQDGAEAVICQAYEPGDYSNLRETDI
The experiment is described as follows: In-vitro functional study, agonist-induced contractile response on isolated rat aorta. The experiment is classed as biochemical. On the procedure:
Aorta, prostate and spleen tissues were isolated from urethane anaesthetized (1.5 gm/kg) male wistar rats. Isolated tissues were mounted in organ bath containing Krebs Henseleit buffer of following compostion (mM): NaCl 118; KCl 4.7; CaCl2 2.5; MgSO4.7H2O 1.2; NaHCO3 25; KH2PO4 1.2; glucose 11.5. Buffer was maintained at 37° C. and aerated with a mixture of 95% O2 and 5% CO2. A resting tension of 2 g (aorta) or 1 g (spleen and prostate) was applied to tissues. Contractile response was monitored using a force displacement transducer and recorded on chart recorders. Tissues were allowed to equilibrate for 2 hours. At the end of equilibration period, concentration response curves to norepinephrine (aorta) and phenylepinephrine (spleen and prostate) were obtained in absence and presence of tested compound (at concentrations of […]). Antagonist affinities were calculated and expressed as pKB vales in Table II.
To compare the differences in pKB at the α1-arenrenoceptor subtypes one-way ANOVA followed by Dunett ‘t’ test was applied. A p<0.05 was considered statistically significant.

Take `CCOc1ccccc1OCCN[C@H](C)Cc1ccc(O)c(S(N)(=O)=O)c1` [Formula I, R (−)-5-[2-[[2-(2-ethoxyphenoxy)ethyl]amino]propyl]-2-hydroxybenzenesulfonamide]: at human α1A-adrenoceptors (human recombinant receptors), the “fold greater affinity for α1A-adrenoreceptor subtype than the corresponding (S)-isomer” value is listed as 102 fold. Further, the Ki on human α1A-adrenoceptors (human recombinant receptors in CHO cells, mean ± SEM, read-out: pKi α1A (converted)) was 0.0219 nM. In experiment [1], this molecule had a Kb of 0.00589 nM.
